Assay results taken from article PMC10257182, “Discovery of senolytics using machine learning” (Nature Communications, 2023).
“And” between values parts separate entries of the source, which are not always exact repeats. Equal values may be shown once.

Assays:
Assay type in all cases: cell-based, human
[1] = test system: non-senescent control A549 cells; experiment: Nuclei count senolytic assay, TIS model, non-senescent control cells; details: Control cells, mean
Protocol: (§1) We performed a second validation of the effectiveness of our machine learning models using a different stressor. We focused on therapy-induced senescence (TIS, Supplementary Fig. 6a), where human epithelial cancerous cells (A549) were induced to become senescent by addition of etoposide. Cells were treated with 100 μM etoposide for 48 h, followed by another three days of exposure to media in standard conditions.
(§2) We performed experimental validation of the compounds with z-score > 8 (Fig. 2e). […] We employed two cellular models of senescence: one of OIS and a second one of TIS. For the OIS case, we utilised IMR90 ER:RAS cells with 4-OHT at 100 nM. […] For the TIS model, we used A549 cells with etoposide at 100 μM. The exposure of the cells to etoposide lasted 48 h, after which period the cells were cultivated for a further three days with normal media.
(§3) IMR90 (CCL-186) human foetal lung fibroblasts and A549 (CCL-185) human lung adenocarcinoma cells were obtained from the American Type Culture Collection (ATCC, Manassas, VA). The cell lines were confirmed to be mycoplasma negative (Lonza MycoAlert, cat #LT07-118). IMR90 ER:RAS is a derivative of IMR90 cells expressing a switchable version of oncogenic H-Ras[84]. IMR90 ER:RAS and A549 cells were maintained in Dulbecco’s Modified Eagle Medium (DMEM, ThermoFisher) supplemented with foetal bovine serum (10%), L-glutamine (2 mM, ThermoFisher), and antibiotic-antimycotic solution (1%, ThermoFisher) and incubated under standard tissue culture conditions (37 °C and 5% CO2). For induction of the senescent phenotype, IMR90-ER:RAS cells were cultured in hydroxytamoxifen (4-OHT) (Sigma) added media at 100 nM final concentration. IMR90 were kept in culture for over 27 passages for replicative senescence. Cells were tested for mycoplasma on a regular basis.
(§4) Cells were seeded (50 μL per well) into 384-well plates (IMR90 ER:RAS cells in Nunc Optical Bottom Polybase Microplates [#142761, Thermo Scientific, Rochester, NY] and A549 cells in CELLSTAR Cell Culture Microplates [#781091, Greiner Bio-One, Kremsmünster, Austria]). Cells were incubated under standard tissue culture conditions for 24 h before the addition of compounds. Passage 14 IMR90 ER:RAS cells were seeded at 1300 cells per well in the control condition, and at 1600 cells per well in the senescent case. Passage 34 A549 cells were seeded at 7000 cells per well in the control condition, and at 10,000 cells per well in the senescent case.
(§5) Dose response plates were prepared with a DMSO control and a 10-point […] concentration range, and added to the compounds using a D300e digital dispenser (Tecan Trading AG, Switzerland) at a final concentration of between 10 μM and 10 nM. Every screened condition was carried out in triplicate. After 72 h of incubation with exposure to the compounds, cells were fixed by the addition of an equal volume of formaldehyde (8%, 50 μL; #BP531-500, Fisher Bioreagents, Fisher Scientific, Loughborough, Leicestershire) to the existing media, incubated at room temperature (30 min), and washed three times in phosphate-buffered saline (PBS). Cells were then permeabilised in Triton-X100 (0.1%, 50 μL) and incubated at room temperature (30 min) followed by three more washes with PBS.
(§6) Cells were stained with Hoechst 33342 for nuclei count (excitation/emission wavelength at 387/447 […], DAPI channel, original concentration at 10 mg/ml, final concentration at 2 μg/ml; H1399, Molecular Probes, Eugene, OR). The staining solution was prepared in bovine serum albumin solution (10%). The staining solution was added to each well (30 μL) and incubated in the dark at room temperature (30 min), followed by three washes with PBS and no final aspiration. Plates were foil sealed.
(§7) Plates were imaged on an ImageXpress micro XLS (Molecular Devices, Eugene, OR) equipped with a robotic plate loader (Scara4, PAA, UK).

[2] = test system: senescent A549 cells (etoposide-induced); experiment: Nuclei count senolytic assay, therapy-induced senescence (TIS) model, senescent cells; details: Senescent cells, mean
Protocol: as §1, §2, §3, §4, §5, §6, §7

[3] = test system: non-senescent control IMR90 ER:RAS cells; experiment: Nuclei count (Hoechst, high content imaging) senolytic assay, OIS model, non-senescent control cells; details: for Mean % Cell Survival: mean n=3 (Fig 3C)
Description: To test for senolytic activity, we compared the effect of each compound on the total cell number (automated high content image-based analysis of total number of nuclei per well) in non-senescent and senescent IMR90 ER:RAS cultures treated with the top hits from the computational screen (Figs. 2e and 3a–d and Supplementary Fig. 4a–c). The drop in cell number compared to untreated controls is indicated by the nuclei count and reflects cell death[13],[15]. As positive control, we employed ouabain, a cardiac glycoside with well characterised senolytic activity.
as §2, §3, §4, §5, §6

## Cc1c(NC(=O)OC[C@@H]2COCCN2)cn2ncnc(Nc3ccc4c(cnn4Cc4cccc(F)c4)c3)c12.Cl.Cl [BMS 599626 2HCL, BMS 599626 dihydrochloride]
[1]; log (dose) [M] -5
  Mean % Cell Survival: 104.732%
[1]; log (dose) [M] -5.33
  Mean % Cell Survival: 111.851%
[1]; log (dose) [M] -5.66
  Mean % Cell Survival: 123.214%
[1]; log (dose) [M] -6
  Mean % Cell Survival: 110.134%
[1]; log (dose) [M] -6.33
  Mean % Cell Survival: 107.884%
[1]; log (dose) [M] -6.66
  Mean % Cell Survival: 104.478%
[1]; log (dose) [M] -7
  Mean % Cell Survival: 103.285%
[1]; log (dose) [M] -7.33
  Mean % Cell Survival: 102.917%
[1]; log (dose) [M] -7.66
  Mean % Cell Survival: 99.9891%
[1]; log (dose) [M] -8
  Mean % Cell Survival: 98.951%
[2]; log (dose) [M] -5
  Mean % Cell Survival: 90.7857%
[2]; log (dose) [M] -5.33
  Mean % Cell Survival: 83.9286%
[2]; log (dose) [M] -5.66
  Mean % Cell Survival: 68.2857%
[2]; log (dose) [M] -6
  Mean % Cell Survival: 92.9286%
[2]; log (dose) [M] -6.33
  Mean % Cell Survival: 86.7857%
[2]; log (dose) [M] -6.66
  Mean % Cell Survival: 103.929%
[2]; log (dose) [M] -7
  Mean % Cell Survival: 113.571%
[2]; log (dose) [M] -7.33
  Mean % Cell Survival: 119.214%
[2]; log (dose) [M] -7.66
  Mean % Cell Survival: 109.286%
[2]; log (dose) [M] -8
  Mean % Cell Survival: 117.714%
[3]; Control cells, log (dose) [M] -5, individual replicates, SUP FIG 4C
  % Cell Survival: 105.353% and 91.3279% and 103.579%
[3]; Control cells, log (dose) [M] -5.33, individual replicates, SUP FIG 4C
  % Cell Survival: 86.7238% and 73.5321% and 81.9018%
[3]; Control cells, log (dose) [M] -5.66, individual replicates, SUP FIG 4C
  % Cell Survival: 118.415% and 87.5339% and 100.613%
[3]; Control cells, log (dose) [M] -6, individual replicates, SUP FIG 4C
  % Cell Survival: 100.107% and 87.4435% and 90.184%
[3]; Control cells, log (dose) [M] -6.33, individual replicates, SUP FIG 4C
  % Cell Survival: 111.884% and 90.2439% and 100.716%
[3]; Control cells, log (dose) [M] -6.66, individual replicates, SUP FIG 4C
  % Cell Survival: 106.852% and 86.4499% and 109.816%
[3]; Control cells, log (dose) [M] -7, individual replicates, SUP FIG 4C
  % Cell Survival: 101.927% and 74.8871% and 92.5358%
[3]; Control cells, log (dose) [M] -7.33, individual replicates, SUP FIG 4C
  % Cell Survival: 103.426% and 89.7922% and 99.3865%
[3]; Control cells, log (dose) [M] -7.66, individual replicates, SUP FIG 4C
  % Cell Survival: 119.807% and 91.5989% and 105.93%
[3]; Control cells, log (dose) [M] -8, individual replicates, SUP FIG 4C
  % Cell Survival: 100.749% and 77.0551% and 102.454%
[3]; Control, log (dose) [M] -5, 72 h
  Mean % Cell Survival: 100.087%
[3]; Control, log (dose) [M] -5.33, 72 h
  Mean % Cell Survival: 80.7192%
[3]; Control, log (dose) [M] -5.66, 72 h
  Mean % Cell Survival: 102.188%
[3]; Control, log (dose) [M] -6, 72 h
  Mean % Cell Survival: 92.5782%
[3]; Control, log (dose) [M] -6.33, 72 h
  Mean % Cell Survival: 100.948%
[3]; Control, log (dose) [M] -6.66, 72 h
  Mean % Cell Survival: 101.039%
[3]; Control, log (dose) [M] -7, 72 h
  Mean % Cell Survival: 89.7834%
[3]; Control, log (dose) [M] -7.33, 72 h
  Mean % Cell Survival: 97.535%
[3]; Control, log (dose) [M] -7.66, 72 h
  Mean % Cell Survival: 105.779%
[3]; Control, log (dose) [M] -8, 72 h
  Mean % Cell Survival: 93.4195%
[3]; Control, log (dose) [M] -5
  % Cell Survival: 100.351% and 111.029% and 102.815%
[3]; Control, log (dose) [M] -5.33
  % Cell Survival: 101.964% and 126.351% and 107.239%
[3]; Control, log (dose) [M] -5.66
  % Cell Survival: 131.276% and 125.833% and 112.534%
[3]; Control, log (dose) [M] -6
  % Cell Survival: 101.823% and 113.768% and 114.812%
[3]; Control, log (dose) [M] -6.33
  % Cell Survival: 107.574% and 113.397% and 102.681%
[3]; Control, log (dose) [M] -6.66
  % Cell Survival: 98.317% and 111.029% and 104.088%
[3]; Control, log (dose) [M] -7
  % Cell Survival: 103.156% and 106.366% and 100.335%
[3]; Control, log (dose) [M] -7.33
  % Cell Survival: 103.086% and 108.882% and 96.7828%
[3]; Control, log (dose) [M] -7.66
  % Cell Survival: 97.5456% and 102.221% and 100.201%
[3]; Control, log (dose) [M] -8
  % Cell Survival: 96.0028% and 99.7779% and 101.072%
